Experimental findings from patent publication US9776965B2, “Pyrrolidin-2-one and piperidin-2-one derivatives as 11-beta hydroxysteroid dehydrogenase inhibitors” (Janssen Pharmaceutica N.V., priority 2004, dated 2017) are described below.

Bounds are passed on as bounds.

For assay [1], the target named is T1, 11b-HSD1 (Mus musculus, UniProt P50172).
T1 construct: Fibroblasts were differentiated into adipocytes; endogenous in cells; host or cells: differentiated 3T3-L1 cells (ATCC-CL-173)
The experiment in a line: Cellular assay, 11b-HSD1 activity in differentiated 3T3-L1 cells. The class given is cell-based. Particulars: 4 hour pre-incubation, read-out: [C2] HSD1 cellular 3T3-L1 Score. As for the experimental part:
The effects on 11b-HSD1 activity was measured in differentiated 3T3-L1 cells and rat hepatocytes.
Mouse fibroblast 3T3-L1 cells (ATCC-CL-173) were seeded at a density of 16500 cells/ml in 12 well plates and grown for 7 days in DMEM medium (supplemented with 10% heat inactivated foetal calf serum, 2 mM glutamine and 25 mg gentamycin) at 37 C in a humidified 5% CO2 atmosphere. Medium was refreshed twice a week. Fibroblasts were differentiated into adipocytes at 37 C in a 5% CO2 humidified atmosphere in growth medium containing 2 μg/ml insulin, 55 μg/ml IBMX and 39.2 μg/ml dexamethasone.
Following a 4 hour pre-incubation with test compound, 0.5 μCi ^3H-cortisone or dehydrocorticosterone, was added to the cultures. One hour later, the medium was extracted on Extrelut^3-columns with 15 ml diethyl ether and the extract was analysed by HPLC as described above.
(§1) As for the enzymatic assays, the compounds to be tested were taken from a stock solution and tested at a final concentration ranging from […] to 3.10^−9M. From the thus obtained dose response curves, the pIC50 value was calculated and scored as follows; Score 1=pIC50 value<5, Score 2=pIC50 value in the range of 5 to 6, Score 3=pIC50 value>6. Some of the thus obtained results are summarized in the table below (in this table NT stands for Not Tested).

The target of a further assay is T2, 11b-HSD2 (Homo sapiens, UniProt P80365).
T2 sequence (P80365 1-405): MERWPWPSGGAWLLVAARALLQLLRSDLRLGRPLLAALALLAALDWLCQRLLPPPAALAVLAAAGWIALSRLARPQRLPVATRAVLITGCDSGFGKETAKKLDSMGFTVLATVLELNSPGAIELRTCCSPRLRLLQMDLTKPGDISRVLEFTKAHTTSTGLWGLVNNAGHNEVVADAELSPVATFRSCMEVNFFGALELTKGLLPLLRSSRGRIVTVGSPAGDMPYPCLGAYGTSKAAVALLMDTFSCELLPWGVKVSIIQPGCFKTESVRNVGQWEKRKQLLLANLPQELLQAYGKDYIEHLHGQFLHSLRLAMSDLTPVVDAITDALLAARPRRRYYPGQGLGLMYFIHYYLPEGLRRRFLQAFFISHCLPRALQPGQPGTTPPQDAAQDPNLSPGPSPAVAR
Nature of the assay: Cellular assay, 11b-HSD2 activity in HepG2 cells. Type of assay: cell-based. On the set-up: endogenous in cells; host or cells: HepG2 (ATCC HB-8065). Particulars: 4 hour pre-incubation, read-out: [C2] HSD2 cellular HepG2 Score. As for the experimental part: The effects on 11b-HSD2 activity was studied in HepG2 and LCC-PK1-cells HepG2-cells (ATCC HB-8065) were seeded in 12 well plates at a density of 100,000 cells/ml and grown at 37 C in a humidified 5% CO2 atmosphere in MEM-Rega-3 medium supplemented with 10% heat inactivated foetal calf serum, 2 mM L-glutamine and sodium bicarbonate). Medium was refreshed twice a week.
Following a 4 hour pre-incubation with test compound, 0.5 μCi ^3H-cortisol or corticosterone, was added to the cultures. One hour later, the medium was extracted on Extrelut^3-columns with 15 ml diethyl ether and the extract was analysed by HPLC as described above.
as §1

The target in assay [2] is 11b-HSD1 (Homo sapiens, UniProt P28845). The experiment in a line: Enzymatic assay, 11b-HSD1 dependent conversion of cortisone into cortisol (reductase activity). Type of assay: biochemical. Particulars: recombinant protein, 2 μM cortisone, 45 min at 37 C; read-out: [C1] HSD1-prot Reduct Score. As for the experimental part: The effects of compounds on 11b-HSD1 dependent conversion of cortisone into cortisol (reductase activity) was studied in a reaction mixture containing 30 mM Tris-HCl buffer pH 7.2, 180 μM NADPH, 1 mM EDTA, 2 μM cortisone, 1 μl drug and/or solvent and 11 μg recombinant protein in a final volume of 100 μl.
Sequence of 11b-HSD1 (Homo sapiens, UniProt P28845) (P28845 whole entry): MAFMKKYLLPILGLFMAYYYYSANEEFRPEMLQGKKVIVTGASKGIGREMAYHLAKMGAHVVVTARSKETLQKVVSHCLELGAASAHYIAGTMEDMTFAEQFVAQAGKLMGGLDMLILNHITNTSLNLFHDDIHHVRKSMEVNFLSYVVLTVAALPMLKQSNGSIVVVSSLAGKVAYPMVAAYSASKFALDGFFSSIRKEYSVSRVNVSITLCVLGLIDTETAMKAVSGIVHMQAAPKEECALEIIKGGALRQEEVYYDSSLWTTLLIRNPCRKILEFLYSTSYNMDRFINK
All incubations were performed for 45 min at 37 C in a water bath. The reaction was stopped by adding 100 μl acetonitrile containing 20 μg corticosterone as internal standard. After centrifugation, the product formation was analysed in the supernatant by HPLC on a Hypersyl BDS-C18 column using 0.05 mM ammonium acetate/methanol (50/50) as solvent. In all of the aforementioned assays, the drugs to be tested were taken from a stock solution and tested at a final concentration ranging from […] to 3.10^−9M. From the thus obtained dose response curves, the pIC50 value was calculated and scored as follows; Score 1=pIC50 value<5, Score 2=pIC50 value in the range of 5 to 6, Score 3=pIC50 value>6. (in this table NT stands for Not Tested).

T1 sequence (P50172 whole entry): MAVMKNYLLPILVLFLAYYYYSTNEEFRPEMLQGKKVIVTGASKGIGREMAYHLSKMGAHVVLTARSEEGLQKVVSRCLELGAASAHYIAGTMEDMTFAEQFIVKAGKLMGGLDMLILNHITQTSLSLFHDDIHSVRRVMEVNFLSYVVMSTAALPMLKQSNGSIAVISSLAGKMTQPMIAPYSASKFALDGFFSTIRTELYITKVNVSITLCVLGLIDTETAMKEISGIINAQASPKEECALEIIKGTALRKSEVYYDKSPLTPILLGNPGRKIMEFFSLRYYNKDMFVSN

Take `C[C@@H](c1ccccc1)N1CC[C@@H](Cc2ccccc2)C1=O` [Compound 5]: the values for the IC50 at 11b-HSD1 [1], at 11b-HSD2 and at 11b-HSD1 [2] were 1 to 10 µM, above 10 µM and 1 to 10 µM, respectively.
`C[C@@H](c1ccccc1)N1CC[C@H](Cc2c(F)cccc2F)C1=O` [Compound 71]: the IC50 was below 1 µM at 11b-HSD1 [1], above 10 µM on 11b-HSD2 and below 1 µM on 11b-HSD1 [2].
On to `Cc1cccc(C)c1C[C@@H]1CCN([C@@H](C)c2ccccc2)C1=O` [Compound 149], for which the IC50 on 11b-HSD1 [1] is below 1 µM; at 11b-HSD2 it was above 10 µM; at 11b-HSD1 [2], above 10 µM.
In the case of `Cc1ccc(C[C@H]2CCN([C@@H](C)c3ccccc3)C2=O)cc1` [Compound 4], the values for the IC50 at 11b-HSD1 [1], at 11b-HSD2 and at 11b-HSD1 [2] were 1 to 10 µM, above 10 µM and above 10 µM, respectively.
With `C[C@@H](c1ccccc1)N1CC[C@@H](Cc2c(F)cccc2F)C1=O` [Compound 70], the IC50 on 11b-HSD1 [1] was below 1 µM; on 11b-HSD2, above 10 µM; on 11b-HSD1 [2] it was above 10 µM.
As to `Cc1ccc(C[C@@H]2CCN([C@@H](C)c3ccccc3)C2=O)cc1` [Compound 3], the IC50 at 11b-HSD1 [1] is 1 to 10 µM; on 11b-HSD2, above 10 µM; on 11b-HSD1 [2] it was below 1 µM.
As for `O=C1C(Cc2c(Cl)cccc2Cl)CCN1CCc1ccc(F)cc1` (centres unmarked) [Compound 80], the figures for the IC50 on 11b-HSD1 [1], on 11b-HSD2 and at 11b-HSD1 [2] were below 1 µM, above 10 µM and below 1 µM, respectively.
Take `COC[C@@H](c1ccccc1)N1CC[C@@H](Cc2c(Cl)cccc2Cl)C1=O` [Compound 101]: the IC50 on 11b-HSD1 [1] and on 11b-HSD1 [2] was above 10 µM each time.
Turning to `O=C1C(Cc2ccc(F)cc2F)CCN1CCc1ccccc1` (centres unmarked) [Compound 108], the IC50 at 11b-HSD1 [1] and at 11b-HSD1 [2] was 1 to 10 µM each time.
Turning to `C[C@@H](c1ccccc1)N1CC[C@H](Cc2cc3c(cc2Cl)OCO3)C1=O` [Compound 154], the IC50 was below 1 µM at 11b-HSD1 [1], 1 to 10 µM at 11b-HSD2 and above 10 µM at 11b-HSD1 [2].
In the case of `C[C@@H](c1ccccc1)N1CC[C@@H](Cc2cc3c(cc2Cl)OCO3)C1=O` [Compound 155], the IC50 at 11b-HSD1 [1] and on 11b-HSD1 [2] was below 1 µM in each case.
Regarding `C[C@H](c1ccccc1)N1CC[C@H](Cc2cccc(Cl)c2Cl)C1=O` [Compound 43], the IC50 on 11b-HSD1 [1] and at 11b-HSD1 [2] was 1 to 10 µM each time.
For the molecule `Cc1cccc(C)c1CC1CCN(CCCc2ccccc2)C1=O` (centres unmarked) [Compound 113], the IC50 at 11b-HSD1 [1] and at 11b-HSD1 [2] was 1 to 10 µM throughout.
For `O=C1C(Cc2c(Cl)cccc2Cl)CCN1CCc1ccc(Br)cc1` (centres unmarked) [Compound 82], the IC50 on 11b-HSD1 [1] is 1 to 10 µM; at 11b-HSD1 [2], below 1 µM.
With `C[C@@H](c1ccccc1)N1CC[C@H](Cc2ccccc2)C1=O` [Compound 6], the values for the IC50 on 11b-HSD1 [1], at 11b-HSD2 and on 11b-HSD1 [2] were 1 to 10 µM, above 10 µM and 1 to 10 µM, respectively.
Consider `COc1ccc(C[C@H]2CCN([C@@H](C)c3ccccc3)C2=O)cc1` [Compound 21], for which the IC50 is below 1 µM at 11b-HSD1 [1] and 1 to 10 µM on 11b-HSD1 [2].
The matching figures for `C[C@@H](c1ccccc1)N1CC[C@H](CCc2ccccc2)C1=O` [Compound 73]: 1 to 10 µM and below 1 µM.
The corresponding values for `C[C@H](c1ccccc1)[C@@H]1CCN([C@@H](C)c2ccccc2)C1=O` [Compound 161] are above 10 µM and 1 to 10 µM.
The matching figures for `C[C@@H](C[C@H]1CCN([C@@H](C)c2ccccc2)C1=O)c1ccccc1` [Compound 135]: below 1 µM and above 10 µM.
For the molecule `O=C1C(Cc2c(Cl)cccc2Cl)CCN1[C@H](Cc1ccccc1)c1ccccc1` (single isomer, unassigned) [Compound 103], the IC50 on 11b-HSD1 [1] and at 11b-HSD1 [2] was above 10 µM each time.
Take `CO[C@H](C[C@@H]1CCN([C@@H](C)c2ccccc2)C1=O)c1ccccc1` [Compound 156]: the IC50 on 11b-HSD1 [1] and at 11b-HSD1 [2] was 1 to 10 µM each time.
Consider `COc1ccccc1CC1CCN(CCc2ccccc2)C1=O` (centres unmarked) [Compound 33], for which the IC50 on 11b-HSD1 [1] was below 1 µM; on 11b-HSD1 [2] it was above 10 µM.
The matching figures for `CC[C@H](c1ccccc1)N1CC[C@H](Cc2c(Cl)cccc2Cl)C1=O` [Compound 96]: above 10 µM and 1 to 10 µM.
The corresponding values for `CCC(CC1(CC(CC)c2ccccc2)CCN([C@@H](C)c2ccccc2)C1=O)c1ccccc1` (mixture of isomers) [Compound 165] are above 10 µM and above 10 µM.
Turning to `N#Cc1ccccc1CC1CCN(CCc2ccccc2)C1=O` (centres unmarked) [Compound 23], the IC50 is below 1 µM at 11b-HSD1 [1] and 1 to 10 µM on 11b-HSD1 [2].
The matching figures for `CC[C@@H](c1ccccc1)N1CC[C@H](Cc2c(Cl)cccc2Cl)C1=O` [Compound 94]: below 1 µM and above 10 µM.
The matching figures for `Cc1ccc([C@H](O)[C@H]2CCN([C@@H](C)c3ccccc3)C2=O)c(C)c1` [Compound 91]: below 1 µM and 1 to 10 µM.
The corresponding values for `Cc1ccccc1CC1CCCN(CCc2ccccc2)C1=O` (centres unmarked) [Compound 87] are 1 to 10 µM and above 10 µM.
As for `C[C@H](c1ccccc1)N1CC[C@@H](Cc2ccccc2)C1=O` [Compound 37], the IC50 at 11b-HSD1 [1] is 1 to 10 µM; at 11b-HSD1 [2], above 10 µM.
The corresponding values for `COc1cccc(C[C@@H]2CCN([C@H](C)c3ccccc3)C2=O)c1` [Compound 52] are 1 to 10 µM and above 10 µM.
The corresponding values for `O=C1C(Cc2c(Cl)cccc2Cl)CCN1CCCc1ccccc1` (centres unmarked) [Compound 114] are below 1 µM and above 10 µM.
With `COc1ccc(C[C@@H]2CCN([C@H](C)c3ccccc3)C2=O)cc1` [Compound 50], the figures for the IC50 on 11b-HSD1 [1] and on 11b-HSD1 [2] were 1 to 10 µM and above 10 µM, respectively.
The matching figures for `CO[C@H](C[C@H]1CCN([C@@H](C)c2ccccc2)C1=O)c1ccccc1` [Compound 157]: below 1 µM and 1 to 10 µM.
The corresponding values for `C[C@H](c1ccccc1)N1CC[C@H](Cc2ccccc2C#N)C1=O` [Compound 64] are 1 to 10 µM and above 10 µM.
For the molecule `C[C@H](C[C@H]1CCN([C@@H](C)c2ccccc2)C1=O)c1ccccc1` [Compound 137], the IC50 at 11b-HSD1 [1] and at 11b-HSD1 [2] was below 1 µM each time.
As for `C[C@@H](c1ccccc1)N1CC[C@@H](Cc2ccc3c(c2)OCO3)C1=O` [Compound 153], the IC50 at 11b-HSD1 [1] and on 11b-HSD1 [2] was 1 to 10 µM in each case.
In the case of `COc1cc(CC2(Cc3ccc(OCc4ccccc4)c(OC)c3)CCN(CCc3ccccc3)C2=O)ccc1OCc1ccccc1` [Compound 164], the IC50 at 11b-HSD1 [1] and at 11b-HSD1 [2] was above 10 µM in each case.
For `C[C@@H](c1ccccc1)N1CC[C@H](Cc2cccc(Cl)c2)C1=O` [Compound 17], the IC50 on 11b-HSD1 [1] and on 11b-HSD1 [2] was 1 to 10 µM throughout.
`Cc1ccccc1CC[C@@H]1CCN([C@@H](C)c2ccccc2)C1=O` [Compound 127]: the IC50 at 11b-HSD1 [1] and at 11b-HSD1 [2] was 1 to 10 µM in each case.
As to `Cc1ccccc1C[C@@H]1CCN([C@H](C)c2ccccc2)C1=O` [Compound 62], the IC50 on 11b-HSD1 [1] is 1 to 10 µM; at 11b-HSD1 [2] it was above 10 µM.
